Assay results from patent publication US9597436B2, “Advanced heart failure treatment material as myocardial/cardiovascular regeneration device” (Osaka University, priority 2012, dated 2017).

Assays:
[1] = system: coculture of NHDF and HUVEC; assay: Internal regeneration factors under coculture of NHDF and HUVEC; type: cell-based, human
Source text: The compound 1 is a low molecular […] having the non-PG skeleton, and TXA2 synthase inhibitory action as well as selective IP agonist action is integrated into the molecule.

fibroblasts = details: cited from earlier work
[2] = system: acute hepatopathy induced by carbon tetrachloride; details: cited from earlier work

In the case of `O=C(O)COc1cccc2c1CCC=C2CCO/N=C(\c1ccccc1)c1cccnc1` [Compound 1, (E)-[5-[2-[1-phenyl-1-(3-pyridyl)methylideneaminoxy]ethyl]-7,8-dihydronaphthalen-1-yloxy]acetic acid], the “internal regeneration factors (HGF, VEGF, EGF, IGF-1, SDF-1, G-CSF)” value [1] is given as “indicates various types of internal regeneration factors”, the “migration, proliferation, and collagen production of fibroblasts” value (fibroblasts) is given as “suppresses” and the “phosphorylation of ERK1/2” value (fibroblasts; progressed due to pathology, by activation of cAMP/PKA) is given as “suppresses”. The “hepatocyte protection (anti-apoptotic and anti-necrosis action)” value [2] was “exhibits hepatocyte protection effects” and the “increases in ALT and AST in blood” value [2] was “suppresses”.
